Consider 94 sequences from the OligoGym collection.

Bases are written 5' to 3'; sugars and linkages follow in the same order, as letters with counts (s phosphorothioate, o phosphodiester; PS: all linkages phosphorothioate). The collection does not say whether C is 5-methylated. l = locked nucleic acid (LNA); d = 2'-deoxy (DNA)

The data set concerns the target Tau. Briefly: rat primary cortical neurons, FLIPR, 25 uM ASO.
In the case of “ACTCTAAGTAGACCCTGGCC (sugars l3 d14 l3, PS)”, the calcium oscillation score was 4.76 % of control.
On to TTGATAAAACATCCCT (sugars l4 d8 l4, PS), for which the calcium oscillation score is 65 % of control.
Consider “TAGTTATACAGTTGGCCCTA (sugars l3 d14 l3, PS)”, for which the calcium oscillation score is 19.1 % of control.
In the case of “CCCAGACCATCAATTTC (sugars l2 d12 l3, PS)” it was 82.2 % of control; in that of TTGGCGTTCTCGCGGA (sugars l3 d10 l3, PS), 0 % of control; in that of “CCCACCCATCAATTTGGAAA (sugars l3 d14 l3, PS)”, 11.7 % of control.
In the case of “CCACACTTGGAGGTCACCTT (sugars l3 d14 l3, PS)” it was 4.52 % of control; in that of “CGCCAGGGACGTGGGTGATA (sugars l3 d14 l3, PS)”, 0 % of control.
As for CTACAAACCAGTTACC (sugars l3 d9 l4, PS), the calcium oscillation score was 107 % of control.
As to TGGATATAGTTAAGGC (sugars l4 d8 l4, PS), the calcium oscillation score is 117 % of control.
As for GGGCGAGTCTACCATG (sugars l3 d10 l3, PS), the figure is 16.3 % of control; as for “AAGCAGGTTAAGTGATTAAC (sugars l3 d14 l3, PS)”, 12.9 % of control; as for “CCAGTTACCATCATACA (sugars l2 d12 l3, PS)”, 91.8 % of control.
As to CCCAGCGTGATCTTCC (sugars l3 d10 l3, PS), the calcium oscillation score was 4.6 % of control.
In the case of “CCCTCCCTTTAATGCCAGGC (sugars l3 d14 l3, PS)” it was 6.04 % of control.
For the sequence “CTCTAAGTAGACCCTGGCCA (sugars l3 d14 l3, PS)”, the calcium oscillation score is 19.1 % of control.
In the case of “CGACTTATCTATCCATC (sugars l4 d10 l3, PS)” it was 50.5 % of control; in that of “AGCCACACTTGGAGGTCACC (sugars l3 d14 l3, PS)”, 0 % of control; in that of “CAGCTAGTGGTGCCACCTGA (sugars l3 d14 l3, PS)”, 16.5 % of control.
Consider “TAACCAACTTTCATCTAC (sugars l4 d10 l4, PS)”, for which the calcium oscillation score was 98.4 % of control.
On to TCGATGCTGCCGGT (sugars l3 d8 l3, PS), for which the calcium oscillation score is 13 % of control.
In the case of TAAGGCAAGGCCTATT (sugars l3 d10 l3, PS) it was 27.2 % of control.
In the case of “GCTGGGTGGTGTCTTTGGAG (sugars l3 d14 l3, PS)” it was 0 % of control; in that of GCATGATTGTGGGC (sugars l3 d8 l3, PS), 85.7 % of control; in that of “ATTTCCAAATTCACTTTTAC (sugars lllddldddddddddlldll, PS)”, 110 % of control.
As to CGAATTACCTAACCTC (sugars l3 d9 l4, PS), the calcium oscillation score is 88.2 % of control.
Regarding “CCAGCAGCTTCGTCTTCCAG (sugars l3 d14 l3, PS)”, the calcium oscillation score is 36.1 % of control.
With “ATTTCCAAATTCACTTTTAC (sugars llddlldddddddddldlll, PS)”, the calcium oscillation score is 112 % of control.
In the case of CCCGTGGTCTGTCTTG (sugars l3 d10 l3, PS) it was 0 % of control; in that of “TCAAAATCCTTAATTTAACC (sugars l4 d12 l4, PS)”, 70.7 % of control; in that of “TATTTCCAAATTCACTTTTA (sugars llddlldddddddddldlll, PS)”, 120 % of control.
In the case of “CTGATCATAATCCTACC (sugars l3 d11 l3, PS)” it was 54.9 % of control; in that of “ATTTCCAAATTCACTTTTAC (sugars lldllddddddddddlldll, PS)”, 85.2 % of control; in that of “ACTTTATTTCCAAATTCACTTTTAC (sugars l1 d1 l2 d18 l3, PS)”, 23.6 % of control.
Consider “CTTTTTCTTGTTCTAAC (sugars l2 d11 l4, PS)”, for which the calcium oscillation score is 57.9 % of control.
In the case of “CCCCACTTTTAATTAAAT (sugars l3 d11 l4, PS)” it was 95.2 % of control; in that of “CCATCATACTCCAAGTT (sugars l3 d12 l2, PS)”, 60.8 % of control.
In the case of TGGATATAGTTAAGGC (sugars l2 d12 l2, PS), the calcium oscillation score was 115 % of control.
Take “TTAACTCATCAACACCTTTT (sugars l4 d13 l3, PS)”: the calcium oscillation score is 59 % of control.
For “ACATCTCTCTAGACATC (sugars l4 d10 l3, PS)”, the calcium oscillation score was 68.4 % of control.
In the case of “CTCAAACTTAAATTTATTTT (sugars l4 d12 l4, PS)” it was 90.7 % of control.
In the case of TGTGATGCAGGAGTT (sugars l3 d9 l3, PS) it was 70.5 % of control; in that of “CAGAGCTGGGTGGTGTCTTT (sugars l3 d14 l3, PS)”, 0 % of control; in that of “CCCACATTTGCAAACCA (sugars l2 d13 l2, PS)”, 53.9 % of control.
In the case of “TCCTAATTCCCAAATTCCTC (sugars l2 d15 l3, PS)” it was 76.6 % of control.
With “CCTTACTTTCTACTCAAT (sugars l2 d12 l4, PS)”, the calcium oscillation score is 62.1 % of control.
In the case of “ACCACATTATCATCCATTCT (sugars l3 d14 l3, PS)” it was 32.2 % of control.
In the case of AGAAATAAGTGGTAGT (sugars l4 d9 l3, PS) it was 89.3 % of control.
In the case of “CATAGCACTTACTACTT (sugars l4 d10 l3, PS)” it was 84.1 % of control; in that of TGATTGTGGGCTTAGG (sugars l3 d10 l3, PS), 2.71 % of control.
With “GATGTTGCCTAATGAGCCAC (sugars l3 d14 l3, PS)”, the calcium oscillation score was 4.52 % of control.
As for “ATTTCAGAGCAAAGTGACCC (sugars l3 d14 l3, PS)”, the figure is 74.5 % of control.
Turning to ACCCTTAGACATAACA (sugars l4 d10 l2, PS), the calcium oscillation score was 75.1 % of control.
For the sequence “GCAAACCACTCTTATTC (sugars l4 d10 l3, PS)”, the calcium oscillation score is 86.8 % of control.
As for “TTCCATCACTTCGAACTCCT (sugars l3 d14 l3, PS)”, the figure is 13.6 % of control; as for “ATTAATTATTAAATCTTCT (sugars l4 d11 l4, PS)”, 63.9 % of control; as for TCCTCCATTGTAACTA (sugars l4 d10 l2, PS), 85.3 % of control.
As for “TGGAAAGATGAAATTTGCTC (sugars l3 d14 l3, PS)”, the figure is 5.81 % of control; as for “GTCCAGGGACCCAATCTTCG (sugars l3 d14 l3, PS)”, 0 % of control; as for “GCCTAATGAGCCACACTTGG (sugars l3 d14 l3, PS)”, 16.6 % of control.
As for “CCCAATCTTCGACTGGACTC (sugars l3 d14 l3, PS)”, the figure is 31.6 % of control; as for CTGGTTTATGATGG (sugars l3 d8 l3, PS), 32.6 % of control; as for “AACCACTCTAACATCTTA (sugars l4 d11 l3, PS)”, 86.8 % of control.
As to “ATTCCTTTCAATGACCA (sugars l4 d11 l2, PS)”, the calcium oscillation score is 49.7 % of control.
In the case of “TTATTAATTCATAAATGACT (sugars l3 d14 l3, PS)” it was 42.3 % of control; in that of “CTTTATTTCCAAATTCACTT (sugars ldlllddddddddddlldll, PS)”, 134 % of control.
Consider “AACGCACCAGGAACCTTCCA (sugars l3 d14 l3, PS)”, for which the calcium oscillation score was 51.4 % of control.
On to TCTACCATGTCGATGC (sugars l3 d10 l3, PS), for which the calcium oscillation score is 51.8 % of control.
As for “ACGCACCAGGAACCTTCCAG (sugars l3 d14 l3, PS)”, the figure is 36.7 % of control.
Take GCTGAGGTGCTCTGGT (sugars l3 d10 l3, PS): the calcium oscillation score was 19.2 % of control.
Regarding “TCTGTCACTTACTACTCA (sugars l3 d13 l2, PS)”, the calcium oscillation score was 66 % of control.
As for “TCATTTTTTATTCATAACTT (sugars l4 d12 l4, PS)”, the calcium oscillation score is 62.3 % of control.
As for “AACTTCTAGTTATACAGTTG (sugars l3 d14 l3, PS)”, the figure is 26.2 % of control.
As to “TCACCACTTTAATCTGC (sugars l2 d12 l3, PS)”, the calcium oscillation score is 45.7 % of control.
As for “TATTTCCAAATTCACTTTTA (sugars l1 d17 l2, PS)”, the figure is ≥ 200 % of control.
In the case of “CACTGGCGACTTGTACACGA (sugars l3 d14 l3, PS)” it was 5.18 % of control; in that of “CAATTCTCATTTCAACCTTC (sugars l2 d14 l4, PS)”, 54.1 % of control.
In the case of CCCAGAATTCTAACTA (sugars l4 d10 l2, PS) it was 63.5 % of control.
For the sequence “GCATGCAGTTTATTCCTGGC (sugars l3 d14 l3, PS)”, the calcium oscillation score was 4.03 % of control.
In the case of TTGTAGACTATTTG (sugars l3 d8 l3, PS) it was 63.3 % of control; in that of “ACCCCACATTTGCAAACC (sugars l2 d13 l3, PS)”, 46.2 % of control.
In the case of CCTGGTGGCGTTGGCC (sugars l3 d10 l3, PS) it was 32.6 % of control; in that of “TTCTAGTTATACAGTTGGCC (sugars l3 d14 l3, PS)”, 26.2 % of control; in that of “ACATCTAAACACCTCAATCC (sugars l2 d15 l3, PS)”, 73.2 % of control.
TGATAAAACATCCCTA (sugars l4 d8 l4, PS): the calcium oscillation score is 80.5 % of control.
On to “CTCTGTCACTTACTACTC (sugars l3 d13 l2, PS)”, for which the calcium oscillation score was 80.8 % of control.
As for “TGTCCAAACTTTTACTC (sugars l4 d10 l3, PS)”, the figure is 65.3 % of control.
In the case of CATTCTATACTTCAGA (sugars l3 d9 l4, PS), the calcium oscillation score was 79 % of control.
In the case of CTTGGGTGGAGTACGG (sugars l3 d10 l3, PS) it was 0 % of control; in that of “GCTCTTCAAATCATTCA (sugars l4 d11 l2, PS)”, 81.1 % of control.
“CTTTGAACACCCCATCTA (sugars l2 d14 l2, PS)”: the calcium oscillation score was 45.6 % of control.
As for “CAGTTACCATCATACAT (sugars l3 d10 l4, PS)”, the figure is 89 % of control; as for TGGGTGATATTGTCCA (sugars l3 d10 l3, PS), 92.6 % of control.
As for “GCAGGTTAAGTGATTAACCA (sugars l3 d14 l3, PS)”, the figure is 36.3 % of control.
